Source: patent US20090227673A1, “Method and Composition for the Treatment of Parkinson's Disease” (priority 2006, published 2009)
Like-named read-outs stand apart in the source and are kept apart here.

Target: T1, human COMT (Homo sapiens, UniProt P21964)
T1 construct: from tissue; host or cells: human liver cytosol (preparations HL4C, HL9C, HL8C)
T1 sequence (P21964 1-221 isoform P21964-2): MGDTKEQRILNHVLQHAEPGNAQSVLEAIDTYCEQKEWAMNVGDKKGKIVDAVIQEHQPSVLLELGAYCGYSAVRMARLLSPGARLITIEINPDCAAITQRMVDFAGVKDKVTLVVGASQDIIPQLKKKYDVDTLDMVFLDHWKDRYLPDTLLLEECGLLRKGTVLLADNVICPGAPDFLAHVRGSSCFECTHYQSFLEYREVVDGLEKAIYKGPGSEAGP
Assay: Inhibition of human liver COMT-mediated o-methylation of catecholamines (human liver cytosol, [3H-methyl]AdoMet)
Assay type: biochemical

[1] = 10 μM catecholamine substrate, 250 μM AdoMet, 0.25 mg/mL human liver cytosolic protein, 37° C., 10 min, pH 7.4

| IC50 [1] [nM] | Structure (SMILES) | IC50 [nM] |
| --- | --- | --- |
| 500 to 1000 | Oc1cc(O)c2c(c1)O[C@H](c1ccc(O)c(O)c1)[C@H](O)C2 [epicatechin] |  |
| ~331 | O=c1c(O)c(-c2ccc(O)c(O)c2)oc2cc(O)cc(O)c12 [quercetin] |  |
|  | O=C(/C=C/c1ccc(O)c(O)c1)OCCc1ccccc1 [caffeic acid pheethyl ester, caffeic acid phenethyl ester] | 500 to 1000 |
| 500 to 1000 | O=C(O)/C=C/c1ccc(O)c(O)c1 [caffeic acid] |  |
| 500 to 1000 | O=C(/C=C/c1ccc(O)c(O)c1)O[C@@H]1C[C@](O)(C(=O)O)C[C@@H](O)[C@H]1O [chlorogenic acid] |  |
